Data taken from PMC7465344 (Pharmaceuticals, 2020).
Values joined by “and” are separate entries in the source; they are usually repeats but may differ in a detail not shown here. Identical values can stand only once. Like-named read-outs stand apart in the source and are kept apart here.

Columns and labels:
[1] = target: T1, hA1 AR (Homo sapiens, UniProt P30542); assay: Competition binding of [3H]DPCPX to hA1 AR in CHO cell membranes; details: for inhibition at 10 µM: read-out: hA1AR percentage of inhibition (I%); for hA1AR Ki: displacement of [3H]DPCPX, CHO cells, mean ± SEM, n = 3–6
T1 sequence (P30542 1-326): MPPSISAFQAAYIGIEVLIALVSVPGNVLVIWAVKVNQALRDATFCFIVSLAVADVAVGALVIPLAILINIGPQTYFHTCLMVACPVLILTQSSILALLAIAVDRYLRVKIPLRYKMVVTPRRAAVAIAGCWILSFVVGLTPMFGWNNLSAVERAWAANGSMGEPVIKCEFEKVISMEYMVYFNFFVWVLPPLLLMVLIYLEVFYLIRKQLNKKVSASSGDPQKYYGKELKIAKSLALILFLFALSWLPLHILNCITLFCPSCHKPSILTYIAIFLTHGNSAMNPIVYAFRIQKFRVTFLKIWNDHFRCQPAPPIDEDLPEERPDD
Description: (§1) For membrane preparation, the cells were washed with phosphate-buffered saline and scraped off T75 flasks in an ice-cold hypotonic buffer (5 mMTris-HCl, 1 mM EDTA, pH 7.4). The cell suspensions were homogenized with a Polytron, centrifuged for 30 min at 40,000× g at 4 °C and the resulting membrane pellets were used for competition binding experiments [44].
(§2) Non-specific binding was defined as binding in the presence of 1 μM DPCPX and was always <10% of the total binding [44]. […] Non-specific binding was defined as binding in the presence of 1 μM ABMECA and was always < 10% of the total binding [46]. Bound and free radioactivity were separated by filtering the assay mixture through Whatman GF/B glass fiber filters using a Brandel cell harvester (Brandel Instruments, Unterföhring, Germany).
(§3) The protein concentration was determined according to a Bio-Rad method with bovine albumin as a standard reference. […] Ki and IC50 values were calculated by the non-linear regression analysis using the equation for a sigmoid concentration-response curve (Graph-PAD Prism, San Diego, CA, USA).

[2] = target: T2, hA2A AR (Homo sapiens, UniProt P29274); assay: Competition binding of [3H]ZM241385 to hA2A AR in CHO cell membranes
T2 sequence (P29274 whole entry): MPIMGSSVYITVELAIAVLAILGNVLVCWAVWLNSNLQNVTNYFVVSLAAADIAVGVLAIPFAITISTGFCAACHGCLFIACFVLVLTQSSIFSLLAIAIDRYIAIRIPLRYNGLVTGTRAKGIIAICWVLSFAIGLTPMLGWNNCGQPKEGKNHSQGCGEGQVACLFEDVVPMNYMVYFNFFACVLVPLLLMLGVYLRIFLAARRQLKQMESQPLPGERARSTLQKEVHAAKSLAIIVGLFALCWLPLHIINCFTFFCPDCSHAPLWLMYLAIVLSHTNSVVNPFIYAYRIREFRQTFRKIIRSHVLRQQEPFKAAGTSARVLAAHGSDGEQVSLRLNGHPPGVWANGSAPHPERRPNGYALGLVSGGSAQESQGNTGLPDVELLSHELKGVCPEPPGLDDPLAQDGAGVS
Description: as §1, §2, §3

[3] = target: T3, hA3 AR (Homo sapiens, UniProt P0DMS8); assay: Competition binding of [125I]AB-MECA to hA3 AR in CHO cell membranes; details: for inhibition at 10 µM: read-out: hA3AR percentage of inhibition (I%)
T3 sequence (P0DMS8 1-318): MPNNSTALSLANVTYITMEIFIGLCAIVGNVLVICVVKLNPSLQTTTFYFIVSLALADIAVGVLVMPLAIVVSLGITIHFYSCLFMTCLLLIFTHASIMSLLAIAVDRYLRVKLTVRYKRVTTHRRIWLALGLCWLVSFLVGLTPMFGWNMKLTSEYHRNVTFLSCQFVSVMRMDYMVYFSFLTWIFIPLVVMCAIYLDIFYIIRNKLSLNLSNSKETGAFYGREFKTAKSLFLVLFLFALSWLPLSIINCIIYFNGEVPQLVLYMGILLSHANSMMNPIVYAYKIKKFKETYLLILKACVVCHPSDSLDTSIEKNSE
Description: as §1, §2, §3

[4] = target: T4, hA2B AR (Homo sapiens, UniProt P29275); assay: Inhibition of NECA stimulated adenylyl cyclase activity (cAMP assay) in CHO cells expressing hA2B receptor; format: cell-based; details: for inhibition at 10 µM: CHO, at 10 μM of tested compound, cAMP assay, read-out: hA2BAR percentage of inhibition (I%); for IC50: NECA stimulated cAMP, hA2B CHO cells, read-out: hA2BAR IC50 (potency in cAMP assay)
T4 construct: expressed in transfected cells; host or cells: CHO cells
T4 sequence (P29275 1-332): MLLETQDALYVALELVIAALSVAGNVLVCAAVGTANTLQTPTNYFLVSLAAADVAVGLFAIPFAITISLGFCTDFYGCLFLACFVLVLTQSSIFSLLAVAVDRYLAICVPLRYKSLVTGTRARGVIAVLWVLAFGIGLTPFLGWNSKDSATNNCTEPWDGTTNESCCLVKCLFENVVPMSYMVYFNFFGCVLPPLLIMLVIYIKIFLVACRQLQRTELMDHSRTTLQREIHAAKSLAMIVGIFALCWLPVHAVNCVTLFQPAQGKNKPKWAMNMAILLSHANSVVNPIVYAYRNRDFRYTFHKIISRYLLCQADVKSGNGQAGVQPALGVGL
Description: At the end of the experiments, plates were read with the Perkin Elmer EnSight Multimode Plate Reader.

[5] = target: T2, hA2A AR; assay: Cyclic AMP assay in CHO cells expressing hA2A AR (modulation of basal cAMP); details: for Pharmacological Behavior / Intrinsic Activity: cyclic AMP assay, hA2A CHO cells; for Intrinsic Activity: mean ± SEM
Description: CHO cells transfected with hAR subtypes were washed with phosphate-buffered saline, detached with trypsin, and centrifuged for 10 min at 200× g. […] At the end of the experiments, plates were read with the Perkin Elmer EnSight Multimode Plate Reader.
Ki and IC50 values were calculated by the non-linear regression analysis using the equation for a sigmoid concentration-response curve (Graph-PAD Prism, San Diego, CA, USA).

Ki [1] [nM]	inhibition at 10 µM [1] [%]	Ki [2] [nM]	inhibition at 10 µM ([2]; read-out: hA2AAR percentage of inhibition (I%)) [%]	Ki [3] [nM]	inhibition at 10 µM [3] [%]	inhibition at 10 µM [4] [%]	IC50 [4] [nM]	hA1AR Ki [1]	melting point [°C]	IC50 [5] [nM]	Pharmacological Behavior [5]	Intrinsic Activity [5]	Ki ([2]; read-out: hA2AAR Ki, displacement of [3H]ZM241385, CHO cells, mean ± SEM, n = 3–6)	Ki ([3]; read-out: hA3AR Ki, displacement of [125I]AB-MECA, CHO cells, mean ± SEM, n = 3–6) [nM]	Compound
180 ± 15		58 ± 5		868 ± 82		26		good affinities	181 to 183						Nc1nc(N2CCN(Cc3ccccc3)CC2)nc2sc(-c3ccco3)nc12 [compound 3, 5-(4-Benzylpiperazin-1-yl)-2-(furan-2-yl)thiazolo[5,4-d]pyrimidin-7-amine]
586 ± 37		594 ± 48		> 10000	8	21	> 10000		197 to 199						Nc1nc(N2CCC(Cc3ccccc3)CC2)nc2sc(-c3ccco3)nc12 [compound 1, 5-(4-Benzylpiperidin-1-yl)-2-(furan-2yl)thiazolo[5,4-d]pyrimidin-7-amine]
2770 ± 249		137 ± 11		816 ± 74		10	> 10000		227 to 229						Nc1nc(N2CCN(C(=O)c3ccco3)CC2)nc2sc(-c3ccco3)nc12 [compound 6, (4-(7-Amino-2-(furan-2-yl)thiazolo[5,4-d]pyrimidin-5-yl)piperazin-1-yl)(furan-2-yl)methanone]
2350 ± 213		326 ± 27		127 ± 15		7	> 10000								COCCOc1ccc(N2CCN(c3nc(N)c4nc(-c5ccco5)sc4n3)CC2)cc1 [compound 5, 2-(Furan-2-yl)-5-(4-(4-(2-methoxyethoxy)phenyl)piperazin-1-yl)thiazolo[5,4-d]pyrimidin-7-amine]
296 ± 22				> 10000	18	15	> 10000								Nc1nc(N2CCN(c3ccccc3)CC2)nc2sc(-c3ccco3)nc12 [compound 2, 2-(Furan-2-yl)-5-(4-phenylpiperazin-1-yl)thiazolo[5,4-d]pyrimidin-7-amine]
436 ± 36		10.8 ± 1		> 10000	23	16	> 10000			9.42 ± 0.87	Inverse agonist	−67 ± 5			Nc1nc(NCCN2CCN(C(=O)c3ccco3)CC2)nc2sc(-c3ccco3)nc12 [compound 15, (4-(2-((7-Amino-2-(furan-2-yl)thiazolo[5,4-d]pyrimidin-5-yl)amino)ethyl)piperazin-1-yl)(furan-2-yl)methanone]

Second part, the molecule before the results:

Compound	Ki [1] [nM]	inhibition at 10 µM [1] [%]	Ki [2] [nM]	inhibition at 10 µM ([2]; read-out: hA2AAR percentage of inhibition (I%)) [%]	Ki [3] [nM]	inhibition at 10 µM [3] [%]	inhibition at 10 µM [4] [%]	IC50 [4] [nM]	hA1AR Ki [1]	melting point [°C]	IC50 [5] [nM]	Pharmacological Behavior [5]	Intrinsic Activity [5]	Ki ([2]; read-out: hA2AAR Ki, displacement of [3H]ZM241385, CHO cells, mean ± SEM, n = 3–6)	Ki ([3]; read-out: hA3AR Ki, displacement of [125I]AB-MECA, CHO cells, mean ± SEM, n = 3–6) [nM]
CCOC(=O)c1ccc(CNc2nc(N)c3nc(-c4ccco4)sc3n2)cc1 [compound 17, Ethyl 4-(((7-amino-2-(furan-2-yl)thiazolo[5,4-d]pyrimidin-5-yl)amino)methyl)benzoate]	> 10000	29	> 10000	33	> 10000	28	17	> 10000							
Nc1nc(NCC2CCN(CCc3ccccc3)CC2)nc2sc(-c3ccco3)nc12 [compound 21, 2-(Furan-2-yl)-N^5-((1-phenethylpiperidin-4-yl)methyl)thiazolo[5,4-d]pyrimidine-5,7-diamine]	247 ± 18		483 ± 34		> 10000	21	27	> 10000							
CCOC(=O)c1ccc(N2CCN(CCNc3nc(N)c4nc(-c5ccco5)sc4n3)CC2)cc1 [compound 16, Ethyl 4-(4-(2-((7-amino-2-(furan-2-yl)thiazolo[5,4-d]pyrimidin-5-yl)amino)ethyl)piperazin-1-yl) benzoate]	> 10000	31	264 ± 24		> 10000	34	26	> 10000							
Nc1nc(NCCN2CCN(c3ccccc3)CC2)nc2sc(-c3ccco3)nc12 [compound 11, 2-(Furan-2-yl)-N^5-(2-(4-phenylpiperazin-1-yl)ethyl)thiazolo[5,4-d]pyrimidine-5,7-diamine]	102 ± 9				> 10000	15	13	> 10000	good affinities		7.42 ± 0.68	Inverse agonist	−52 ± 4	8.6 nM and 8.62 nM	
COCCN1CCC(CNc2nc(N)c3nc(-c4ccco4)sc3n2)CC1 [compound 18, 2-(Furan-2-yl)-N^5-((1-(2-methoxyethyl)piperidin-4-yl)methyl)thiazolo[5,4-d]pyrimidine-5,7-diamine]	524 ± 41		802 ± 73		> 10000	28	11	> 10000							
COc1ccc(CN2CCC(CNc3nc(N)c4nc(-c5ccco5)sc4n3)CC2)cc1 [compound 20, 2-(Furan-2-yl)-N^5-((1-(4-methoxybenzyl)piperidin-4-yl)methyl)thiazolo[5,4-d]pyrimidine-5,7-diamine]	152 ± 11		88 ± 9		> 10000	29	24	> 10000	good affinities	182 to 183					
Nc1nc(N2CCN(CCN3CCCC3)CC2)nc2sc(-c3ccco3)nc12 [compound 8, 2-(Furan-2-yl)-5-(4-(2-(pyrrolidin-1-yl)ethyl)piperazin-1-yl)thiazolo[5,4-d]pyrimidin-7-amine]	638 ± 56				> 10000	25	19	> 10000							
COCCOc1ccc(N2CCN(CCNc3nc(N)c4nc(-c5ccco5)sc4n3)CC2)cc1 [compound 14, 2-(Furan-2-yl)-N^5-(2-(4-(4-(2-methoxyethoxy)phenyl)piperazin-1-yl)ethyl)thiazolo[5,4-d]pyrimidine-5,7-diamine]	452 ± 38		18.3 ± 1.9		1490 ± 126		17	> 10000			15.2 ± 1.3	Inverse agonist	−51 ± 5		
Nc1nc(NCCN2CCC(Cc3ccccc3)CC2)nc2sc(-c3ccco3)nc12 [compound 10, N^5-(2-(4-Benzylpiperidin-1-yl)ethyl)-2-(furan-2-yl)thiazolo[5,4-d]pyrimidine-5,7-diamine]	725 ± 67		187 ± 16		> 10000	22	22	> 10000		155 to 157					
Nc1nc(NCCc2ccc(O)cc2)nc2nc(-c3ccco3)nn12 [ZM 241385, reference compound]															672 ± 51
Nc1nc(NCC2CCN(Cc3ccccc3)CC2)nc2sc(-c3ccco3)nc12 [compound 19, N^5-((1-Benzylpiperidin-4-yl)methyl)-2-(furan-2-yl)thiazolo[5,4-d]pyrimidine-5,7-diamine]	365 ± 29		15.2 ± 1.7		> 10000	35	18	> 10000			14.8 ± 1.4	Inverse agonist	−64 ± 4		
Nc1nc(NCCN2CCN(CCc3ccccc3)CC2)nc2sc(-c3ccco3)nc12 [compound 13, 2-(Furan-2-yl)-N^5-(2-(4-phenethylpiperazin-1-yl)ethyl)thiazolo[5,4-d]pyrimidine-5,7-diamine]	522 ± 47		37 ± 3		> 10000	33	29	> 10000							
